In article PMC6335172 (Acta Physiologica (Oxford, England), 2018):
“And” between values parts separate entries of the source, which are not always exact repeats. Identical values can stand only once. Like-named read-outs stand apart in the source and are kept apart here.

What was measured:
[1] = molecular target: wild type human I Ks channel (Kv7.1/KCNE1) (Homo sapiens, UniProt P51787); assay: Two-electrode voltage clamp of I Ks channel; assay type: cell-based; settings: pH 9.0, mean ± SEM; for Max ΔV 0.5 (shift of voltage dependence of activation) / Max I/I 0 (relative increase in K+ current at 0 mV) / Max G max/G max0 (maximal conductance normalized to control): fitted maximum from dose response; for Max ΔV 0.5 (shift of voltage dependence of activation): G-V from tail currents
Kv7.1 channel = settings: Kv7.1 without KCNE1; cited from earlier work
[2] = system: I Ks channel (coexpression of Kv7.1 and KCNE1); settings: cited from earlier work; for Effect on the V 0.5 of the I Ks channel at pH 7.5: Kv7.1 co-expressed with KCNE1, pH 7.5
[3] = read-out: K m of ΔV 0.5, Hill fit of dose response
[4] = K m of ΔV 0.5, Hill fit of dose response

Sequence of wild type human I Ks channel (Kv7.1/KCNE1) (P51787 whole entry): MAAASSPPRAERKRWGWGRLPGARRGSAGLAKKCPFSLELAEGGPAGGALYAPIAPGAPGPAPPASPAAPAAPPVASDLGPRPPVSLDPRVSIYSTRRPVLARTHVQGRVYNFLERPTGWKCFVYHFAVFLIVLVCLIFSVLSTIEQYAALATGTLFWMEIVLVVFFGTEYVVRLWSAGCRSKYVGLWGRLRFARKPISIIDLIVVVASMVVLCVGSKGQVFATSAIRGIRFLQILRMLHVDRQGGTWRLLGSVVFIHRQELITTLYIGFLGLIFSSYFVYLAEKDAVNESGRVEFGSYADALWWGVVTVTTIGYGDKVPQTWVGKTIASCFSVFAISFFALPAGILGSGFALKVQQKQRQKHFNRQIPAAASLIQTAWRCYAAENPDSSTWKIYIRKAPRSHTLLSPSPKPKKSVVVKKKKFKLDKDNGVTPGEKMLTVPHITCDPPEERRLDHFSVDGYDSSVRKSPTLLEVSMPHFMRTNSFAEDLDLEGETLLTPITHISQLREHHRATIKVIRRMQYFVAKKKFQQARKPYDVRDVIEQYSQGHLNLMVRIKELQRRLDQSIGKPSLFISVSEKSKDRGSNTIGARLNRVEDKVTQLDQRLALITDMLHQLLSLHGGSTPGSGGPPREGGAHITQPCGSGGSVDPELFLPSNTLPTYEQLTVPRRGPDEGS

Compound | Max ΔV 0.5 (shift of voltage dependence of activation) [1] [mV] | Max I/I 0 (relative increase in K+ current at 0 mV) [1] | Max G max/G max0 (maximal conductance normalized to control) [1] | EC50 [1, 3] [µM] | EC50 [1, 4] [µM] | EC50 ([1]; read-out: K m of G max, Hill fit of dose response) [µM] | EC50 ([1]; K m of G max, Hill fit of dose response) [µM] | Shift of the voltage dependence of activation (V 0.5) of the Kv7.1 channel (Kv7.1 channel) | Effect on the V 0.5 of the I Ks channel at pH 7.5 [2] | Effect on K+ current when Kv7.1 is co-expressed with KCNE1, pH 7.5 ([2]; pH 7.5)
CCC=CCC=CCC=CCCCC(=O)O [14:3Δ5,8,11, Tetradecatrienoic acid (5,8,11)] | 0.80 ± 6.5 | 1.1 ± 0.15 | 0.84 ± 0.1 |  |  |  |  |  |  | 
CCC=CCC=CCC=CCCCCCC(=O)O [16:3Δ7,10,13, Hexadecatrienoic acid (7,10,13)] | −13.4 ± 0.6 | 2.1 ± 0.02 | 0.9 ± 0.2 | 7.2 ± 0.5 |  |  |  |  |  | 
CCCCC/C=C\C/C=C\CCCCCCCC(=O)O [18:2Δ9,12, Linoleic acid (9,12)] | −29.8 ± 1.7 | 3.6 ± 0.6 | 1.06 ± 0.02 |  |  |  |  |  |  | 
CCCCC/C=C\C/C=C\C/C=C\C/C=C\CCCC(=O)NCCS(=O)(=O)O [N‐AT, N‐arachidonoyl taurine] |  |  |  |  |  |  |  |  | retain the ability to shift the voltage dependence | 

Further lines, with some results ahead:

Max ΔV 0.5 (shift of voltage dependence of activation) [1] [mV] | Max I/I 0 (relative increase in K+ current at 0 mV) [1] | Max G max/G max0 (maximal conductance normalized to control) [1] | EC50 [1, 3] [µM] | EC50 [1, 4] [µM] | EC50 ([1]; read-out: K m of G max, Hill fit of dose response) [µM] | EC50 ([1]; K m of G max, Hill fit of dose response) [µM] | Compound | Shift of the voltage dependence of activation (V 0.5) of the Kv7.1 channel (Kv7.1 channel) | Effect on the V 0.5 of the I Ks channel at pH 7.5 [2] | Effect on K+ current when Kv7.1 is co-expressed with KCNE1, pH 7.5 ([2]; pH 7.5)
−25 ± 4.6 | 2.4 ± 0.05 | 1.0 ± 0.1 |  | 9.8 ± 4.4 |  |  | CC/C=C\C/C=C\C/C=C\C/C=C\C/C=C\CCCC(=O)O [20:5Δ5,8,11,14,17, Eicosapentaenoic acid (5,8,11,14,17)] |  |  | 
−4 ± 0.13 | 1.6 ± 0.05 | 1.2 ± 0.01 | 11.1 ± 0.6 |  | 1.2 ± 1.7 |  | CCC=CCC=CCC=CCC=CCC=CCCCCCC(=O)O [22:5Δ7,10,13,16,19, Docosapentaenoic acid (7,10,13,16,19)] |  |  | 
−20.2 ± 0.1 | 3.2 ± 0.1 and 3.2 ± 0.01 | 1.5 ± 0.2 |  | 3.1 ± 0.1 |  | 1.8 | CC/C=C\C/C=C\C/C=C\C/C=C\C/C=C\C/C=C\CCC(=O)O [22:6Δ4,7,10,13,16,19, Docosahexaenoic acid (4,7,10,13,16,19)] | to more negative voltages | no effect on the V 0.5 | abolished
